Measured values as given in US20240165113A1, “METHODS OF TREATMENT FOR LEUKEMIA” (DNA SEQ 2, Inc., priority 2021, published 2024).
Like-named read-outs stand apart in the source and are kept apart here.

Columns and labels:
human tumor cells = details: growth of human tumor cells; cited from earlier work
[1] = target: T1, phosphorylated ABL1(T315I)(229-499) (Homo sapiens, UniProt P00519, T315I); test: SPR binding to phosphorylated ABL1(T315I)(229-499); details: Ni-NTA capture of 10xHis-tag
T1 construct: The protocol was adapted to generate phosphorylated 10×His-tev-ABL1(T315I)(229-499) for use in the SPR studies; made in house; host or cells: E. coli; autophosphorylated in vitro with ATP/MgCl2
T1 sequence (P00519 229-499 T315I): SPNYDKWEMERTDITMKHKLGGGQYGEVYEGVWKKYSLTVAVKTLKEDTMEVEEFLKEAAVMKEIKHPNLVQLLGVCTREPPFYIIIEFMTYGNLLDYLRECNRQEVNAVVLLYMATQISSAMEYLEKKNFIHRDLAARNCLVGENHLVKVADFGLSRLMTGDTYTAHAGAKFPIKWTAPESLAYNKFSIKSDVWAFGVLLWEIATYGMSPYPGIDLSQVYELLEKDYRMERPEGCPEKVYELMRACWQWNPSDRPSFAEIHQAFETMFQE

Nc1nc(N)c(N=O)c(OCC2CCCCC2)n1 [A-0001, 6-Cyclohexylmethyloxy-5-nitroso-pyrimidine-2,4-diamine]
GI50 (human tumor cells): 10 µM | Kd ([1]; HBST buffer, read-out: Phosphorylated ABL1(T315I)(229-499) in HBST buffer KD): 13 µM | Kd ([1]; PBST buffer, read-out: Phosphorylated ABL1(T315I)(229-499) in PBST buffer KD): 16 µM
